Experimental data reported in patent US20160287624A1, “Water-Soluble Vitamins to Increase Oral Absorption and Bioavailability” (NESTEC S.A., priority 2013, published 2016).

How the values were obtained:
[1] = rat, in vivo, po
Description: Rats (n=6 per group) were orally administered at a dose equivalent to 2 mg/70 kg person in a free form (unformulated control F4) or a formulation of Formula 1 (API:Stevia at 1:25 w/w), Formula 2 (API:Stevia at 1:50 w/w), or Formula 3 (API:Stevia at 1:125 w/w).
To answer the question whether the solubilizer enhanced the absorption of vitamin B12, the four formulations were assessed in a Sprague Dawley rat model at the vitamin B12 dose equivalent to 1 mg/70 kg person. Each group (formulation) had 6 rats (n=6). Each rat was orally gavaged and blood collected at 11 time points during a 12-hour period. The plasma samples were stored in a freezer prior to vitamin B12 analyses. Relative bioavailability was calculated by comparing the area under the time-concentration curves of formulated over the unformulated control.
Vitamin B12 in rat plasma over time after oral gavage with baseline normalized for all treatments were analyzed by a radioimmunoassay method. The vitamin B12 in rat plasma over a 12-hr period at 15, 30, 45, 60, 90 min, and 2, 2.5, 4, 6, 8, and 12 h after oral gavage at a dose equivalent to 2 mg/70 kg person in a free form (unformulated control) or a formulated form of Formula 1 (vitamin B12:stevia at 1:25 w/w), Formula 2 (vitamin B12:stevia at 1:50 w/w), or Formula 3 (vitamin B12:stevia at 1:125 w/w) were analyzed.

[2] = Stability of vitamin B12 in simulated gastric fluid (HPLC-UV); type: physicochemical; settings: 37° C.
Description: The pH of simulated gastric fluid was measured. […] The solutions were incubated at 37° C. in the water bath of a shaker operated at 50 rpm. After 2 hrs. of incubation, 1 mL solution was taken for HPLC analysis.
The pure vitamin B12 (F4) was also reconstituted in gastric fluid as an unformulated control. Both sample solutions were made to contain 20 μg/ml vitamin B12, wrapped with aluminum foil to avoid exposure to light, and incubated at 37° C. for two hours. The solutions were then stored in a freezer for 22 hrs. The frozen samples were thawed to room temp before HPLC-UV analysis.

[3] = test system: Caco-2 cell monolayer; experiment: Absorption assessment in Caco-2 cell monolayer (A->B permeability)
Description: (§1) A Caco-2 cellular model was used to study the effect of the stevia solubilizer on the intestinal absorption of vitamin B12. The Caco-2 cell monolayer model is the pharmaceutical industry standard for predicting human oral absorption. The test samples included:

[4] = as above; settings: human, Caco-2, Mean A->B Papp, assay duration 2 hr; controls 10 μM, formulations analyte test conc. 20 μg/mL
Description: as §1

Time during which vitamin B12 in plasma was detected [1] [min]	Tmax (the time at which Cmax is reached) [1] [h]	Stability of vitamin B12 in gastric fluid ([2]; over a two hour period, 20 μg/ml)	R.E. (relative error) 2 hr ([2]; simulated gastric fluid, 2 hr) [%]	Determined Concentration 2 hr ([2]; simulated gastric fluid, 2 hr, 0 hr 20.2 μg/mL) [µg/mL]	Permeability across Caco-2 cell monolayer [3]	Mean A->B Papp ([3]; assay duration 2 hr, controls 10 μM, formulations analyte test conc. 20 μg/mL)	Papp A→B at 2 h, 10 μM [4] [×10⁻⁶ cm/s]	Structure (SMILES)
480	1.5	stable	3.7	21.0	not permeable	<LLOQ^c		C/C1=C2/[N-][C@H]([C@H](CC(N)=O)[C@@]2(C)CCC(=O)NC[C@@H](C)OP(=O)([O-])O[C@H]2[C@@H](O)[C@@H](n3cnc4cc(C)c(C)cc43)O[C@@H]2CO)[C@]2(C)N=C(/C(C)=C3N=C(/C=C4N=C1[C@@H](CCC(N)=O)C\4(C)C)[C@@H](CCC(N)=O)[C@]\3(C)CC(N)=O)[C@@H](CCC(N)=O)[C@]2(C)CC(N)=O.[CH3-].[Co+3] [Formula F4, methylcobalamin]
							0.3	CNC(=C[N+](=O)[O-])NCCSCc1ccc(CN(C)C)o1 [Ranitidine]
